Literature values, collected in US7211274B2, “Hair growth formulation” (Hovis SDN BHD, priority 2002, dated 2007).

Conditions: reported

| Half life in humans | Substance |
| --- | --- |
| 2 to 4 h | tocotrienols |
| about 20 hours | tocopherols |
